According to patent publication US20170349532A1, “CATIONIC LIPID” (Kyowa Hakko Kirin Co., Ltd., priority 2011, published 2017):

test: Average particle diameter of preparation (Zetasizer Nano ZS); format: physicochemical; conditions: Comparative Examples 1 to 8, prepared as Example 118 with apo-b siRNA
Method in brief: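 Lipid nanoparticles formed by mixing cationic lipid/PEG-DMPE Na/DSPC/cholesterol (8.947/1.059/5.708/13.697 mmol/L in 90% ethanol, 37 °C) with apo-b siRNA in Tris-EDTA/citrate buffer pH 5.0, then diluted with citrate/NaCl pH 6.0 and DPBS to 10 μM siRNA. Mean complex diameter measured by dynamic light scattering.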

Compound | average particle diameter of the complex between the cationic lipis and the nucleic acid in the preparation
CCCCCCCC/C=C\CCCCCCCC(=O)OCC(C[N+](C)(C)C)OC(=O)CCCCCCC/C=C\CCCCCCCC.[Cl-] (centres unmarked) [Compound A-1, N(2,3-di-(9-(Z)-octadecenoyloxy))-prop-1-yl-N,N,N-trimethylammonium chloride, reference compound] | 104.0 nm

same assay, conditions: average particle diameter of cationic lipid/nucleic acid complex; Example 118 preparation: compound/PEG-DMPE Na/DSPC/cholesterol with apo-b siRNA

Compound | Particle diameter of Preparetion
CCCCC/C=C\C/C=C\CCCCCCCCCCOCCN(C)CCOCCCCCCCCCC/C=C\C/C=C\CCCCC [Compound 79, N,N-bis(2-((11Z,14Z)-Icos-11,14-dienyloxy)ethyl)-N-methylamine] | 116.5 nm
CCCCCCCC/C=C\CCCCCCCCOCC[N+](C)(C)CCOCCCCCCCC/C=C\CCCCCCCC.[Cl-] [Compound 80, N,N-diMethyl-N,N-bis(2-((Z)-octadec-9-enyloxy)ethyl)aminium chloride] | 110.3 nm
CCCCCCCC/C=C\CCCCCCCCOCCN(CCOCCCCCCCC/C=C\CCCCCCCC)CC(O)CO (centres unmarked) [Compound 82, 3-(bis(2-((Z)-Octadec-9-enyloxy)ethyl)amino)propan-1,2-diol] | 125.7 nm
CCCCCCCC/C=C\CCCCCCCCOCCN(CCOCCCCCCCC/C=C\CCCCCCCC)CCC(N)=O [Compound 84, 3-(bis(2-((2)-Octadec-9-enyloxy)ethyl)amino)propanamide] | 120.2 nm
CCCCCCCC/C=C\CCCCCCCCOCCN(CCOCCCCCCCC/C=C\CCCCCCCC)C(=O)CCCCCN [Compound 88, 6-Amino-N,N-bis(2-((Z)-octadec-9-enyloxy)ethyl)] | 131.9 nm
CCCCCCCC/C=C\CCCCCCCCOCCN(CCOCCCCCCCC/C=C\CCCCCCCC)C(=O)[C@@H](N)CO [Compound 91, (S)-2-Amino-3-hydroxy-N,N-bis(2-((Z)-octadec-9-enyloxy)ethyl)propanamido] | 125.4 nm
CCCCCCCC/C=C\CCCCCCCCOCCN(CCOCCCCCCCC/C=C\CCCCCCCC)C(=O)[C@@H](N)CN [Compound 92, (S)-2,3-Diamino-N,N-bis(2-((Z)-octadec-9-enyloxy)ethyl)propanamido] | 143.9 nm
CCCCCCCC/C=C\CCCCCCCCOCCN(CCOCCCCCCCC/C=C\CCCCCCCC)C(=O)[C@@H](N)CCCN [Compound 93, (S)-2,5-Diamino-N,N-bis(2-((Z)-octadec-9-enyloxy)ethyl)pentanamido] | 135.1 nm
CCCCCCCC/C=C\CCCCCCCCOCCN(CCOCCCCCCCC/C=C\CCCCCCCC)C(=O)[C@@H](N)CCCCN [Compound 94, (S)-2,6-Diamino-N,N-bis(2-((Z)-octadec-9-enyloxy)ethyl)hexanamido] | 137.3 nm
CCCCC/C=C\C/C=C\CCCCCCCCCCOC[C@@H]1CN(C(=O)[C@@H](N)CCCCN)C[C@H]1COCCCCCCCCCC/C=C\C/C=C\CCCCC [Compound 115, trans-1-((S)-2,6-Diaminohexanoyl)-3,4-bis(((11Z,14Z)-icos-11,14-dienyloxy)methyl)pyrrolidine] | 152.8 nm

Now from value to molecule:

Particle diameter of Preparetion | Compound
103.4 nm | CCCCCCCC/C=C\CCCCCCCC(=O)OCC[N+](C)(C)CCOC(=O)CCCCCCC/C=C\CCCCCCCC.[Cl-] [Compound 81, N,N-diMethyl-N,N-bis(2-((Z)-octadec-9-enoyloxy)ethyl)aminium chloride]
169.1 nm | CCCCCCCC/C=C\CCCCCCCC(=O)OCCN(CCOC(=O)CCCCCCC/C=C\CCCCCCCC)CC(O)CO (centres unmarked) [Compound 83, 3-(bis(2-((Z)-Octadec-9-enoyloxy)ethyl)amino)propan-1,2-diol]
120.1 nm | CCCCCCCC/C=C\CCCCCCCCOCCN(CCOCCCCCCCC/C=C\CCCCCCCC)CCC(=O)N(C)C [Compound 85, 3-(bis(2-((2)-Octadec-9-enyloxy)ethyl)amino)-N,N-dimethylpropanamide]
128.4 nm | CCCCCCCC/C=C\CCCCCCCCOCCN(CCOCCCCCCCC/C=C\CCCCCCCC)C(=O)CN [Compound 86, 2-Amino-N,N-bis(2-((Z)-octadec-9-enyloxy)ethyl)acetamide]
136.3 nm | CCCCCCCC/C=C\CCCCCCCCOCCN(CCOCCCCCCCC/C=C\CCCCCCCC)C(=O)CCN [Compound 87, 3-Amino-N,N-bis(2-((Z)-octadec-9-enyloxy)ethyl)propanamido]
121.5 nm | CCCCCCCC/C=C\CCCCCCCCOCCN(CCOCCCCCCCC/C=C\CCCCCCCC)C(=O)CN(C)C [Compound 89, 2-(Dimethylamino)-N,N-bis(2-((Z)-octadec-9-enyloxy)ethyl)acetamide]
120.8 nm | CCCCCCCC/C=C\CCCCCCCCOCCN(CCOCCCCCCCC/C=C\CCCCCCCC)C(=O)CCN(C)C [Compound 90, 3-(Dimethylamino)-N,N-bis(2-((Z)-octadec-9-enyloxy)ethyl)propanamido]
128.3 nm | CCCCCCCC/C=C\CCCCCCCC(=O)OCCN(CCOC(=O)CCCCCCC/C=C\CCCCCCCC)C(=O)CN [Compound 95, 2-Amino-N,N-bis(2-((Z)-octadec-9-enoyloxy)ethyl)acetamide]
133.2 nm | CCCCC/C=C\C/C=C\CCCCCCCC(=O)OCCN(CCOC(=O)CCCCCCC/C=C\C/C=C\CCCCC)C(=O)CN [Compound 96, 2-Amino-N,N-bis(2-((9Z,12Z)-octadec-9,12-dienoyloxy)ethyl)acetamide]
133.0 nm | CCCCCCCC/C=C\CCCCCCCC(=O)OCCN(CCOC(=O)CCCCCCC/C=C\CCCCCCCC)C(=O)[C@@H](N)CCCCN [Compound 97, (S)-2,6-Diamino-N,N-bis(2-((Z)-octadec-9-enoyloxy)ethyl)hexanamido]
124.1 nm | CCCCCCCC/C=C\CCCCCCCC(=O)OCCN(CCOC(=O)CCCCCCC/C=C\CCCCCCCC)C(=O)CN(C)C [Compound 98, 2-(Dimethylamino)-N,N-bis(2-((Z)-octadec-9-enoyloxy)ethyl)acetamide]
129.6 nm | CCCCCCCC/C=C\CCCCCCCC(=O)OCCN(CCOC(=O)CCCCCCC/C=C\CCCCCCCC)C(=O)CCN(C)C [Compound 99, 3-(Dimethylamino)-N,N-bis(2-((Z)-octadec-9-enoyloxy)ethyl)propanamido]
135.1 nm | CCCCC/C=C\C/C=C\CCCCCCCC(=O)OCCN(CCOC(=O)CCCCCCC/C=C\C/C=C\CCCCC)C(=O)[C@@H](N)CCCCN [Compound 100, (S)-2,6-Diamino-N,N-bis(2-((9Z,12Z)-octadec-9,12-dienoyloxy)ethyl)hexanamido]
154.1 nm | CCCCCCCC/C=C\CCCCCCCC(=O)OCCN(CCOC(=O)CCCCCCC/C=C\CCCCCCCC)C(=O)OCCCN(C)C [Compound 116, 3-(Dimethylamino)propyl bis(2-((Z)-1-oxooctadec-9-enyloxy)ethyl)carbamate]
155.9 nm | CCCCC/C=C\C/C=C\CCCCCCCC(=O)OCCN(CCOC(=O)CCCCCCC/C=C\C/C=C\CCCCC)C(=O)OCCCN(C)C [Compound 117, 3-(Dimethylamino)propyl bis(2-((9Z,12Z)-1-oxooctadec-9,12-dienyloxy)ethyl)carbamate]
